Measured values from ChEMBL document CHEMBL1201862, “PubChem BioAssay data set” (2004).
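Method: 48-hour compound exposure of cells in 96-well plates, five concentrations, linear interpolation of endpoints. Abbreviation: GI50, concentration required for 50% inhibition of growth.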 Activity calls are given as the source filed them. Rule as the data show it: active = GI50 up to about 1.1 µM and inactive = higher.

Tests used:
Experiment in all cases: NCI anticancer screen, dose series, 48 h
[1] = test system: EKVX
[2] = test system: HCT-15
[3] = test system: UACC-257
[4] = test system: ACHN
[5] = test system: HOP-92
[6] = test system: HCC 2998
[7] = test system: SK-MEL-28
[8] = test system: SNB-78
[9] = test system: HOP-62
[10] = test system: OVCAR-8
[11] = test system: IGROV-1
[12] = test system: SF-295
[13] = test system: SN12C
[14] = test system: K562
[15] = test system: KM12
[16] = test system: NCI-H226
[17] = test system: U-251
[18] = test system: TK-10
[19] = test system: M19-MEL
[20] = test system: SF-268
[21] = test system: HT-29
[22] = test system: UACC-62
[23] = test system: SW-620
[24] = test system: UO-31
[25] = test system: 786-0
[26] = test system: LOX IMVI
[27] = test system: DLD-1
[28] = test system: NCI-H460
[29] = test system: SNB-19
[30] = test system: A498
[31] = test system: OVCAR-3
[32] = test system: M14
[33] = test system: CAKI-1
[34] = test system: SF-539
[35] = test system: KM-20L2
[36] = test system: SK-OV-3
[37] = test system: DMS-273
[38] = test system: SNB-75
[39] = test system: HOP-18
[40] = test system: A549
[41] = test system: DMS-114
[42] = test system: SK-MEL-5
[43] = test system: OVCAR-5
[44] = test system: HCT-116
[45] = test system: NCI-H23
[46] = test system: RPMI-8226
[47] = test system: OVCAR-4
[48] = test system: SK-MEL-2
[49] = test system: XF498
[50] = test system: Malme-3M
[51] = test system: COLO 205
[52] = test system: CCRF-CEM
[53] = test system: HL-60
[54] = test system: LXFL 529
[55] = test system: NCI-H522
[56] = test system: SR
[57] = test system: RXF 393
[58] = test system: MOLT-4

## COCN1COCN(C)C1=O
[1]
  GI50: > 100 µM (inactive)
[2]
  GI50: > 100 µM
[3]
  GI50: > 100 µM (inactive)
[4]
  GI50: > 100 µM (inactive)
[5]
  GI50: > 100 µM (inactive)
[6]
  GI50: > 100 µM (inactive)
[7]
  GI50: > 100 µM (inactive)
[8]
  GI50: > 100 µM (inactive)
[9]
  GI50: > 100 µM (inactive)
[10]
  GI50: > 100 µM (inactive)
[11]
  GI50: > 100 µM (inactive)
[12]
  GI50: > 100 µM (inactive)
[13]
  GI50: > 100 µM (inactive)
[14]
  GI50: > 100 µM (inactive)
[15]
  GI50: > 100 µM (inactive)
[16]
  GI50: > 100 µM (inactive)
[17]
  GI50: > 100 µM (inactive)
[18]
  GI50: > 100 µM (inactive)
[19]
  GI50: > 100 µM (inactive)
[20]
  GI50: > 100 µM (inactive)
[21]
  GI50: > 100 µM (inactive)
[22]
  GI50: > 100 µM (inactive)
[23]
  GI50: > 100 µM (inactive)
[24]
  GI50: > 100 µM (inactive)
[25]
  GI50: > 100 µM (inactive)
[26]
  GI50: > 100 µM (inactive)
[27]
  GI50: > 100 µM (inactive)
[28]
  GI50: > 100 µM (inactive)
[29]
  GI50: > 100 µM (inactive)
[30]
  GI50: > 100 µM (inactive)
[31]
  GI50: > 100 µM (inactive)
[32]
  GI50: > 100 µM (inactive)
[33]
  GI50: > 100 µM (inactive)
[34]
  GI50: > 100 µM (inactive)
[35]
  GI50: > 100 µM (inactive)
[36]
  GI50: > 100 µM (inactive)
[37]
  GI50: > 100 µM (inactive)
[38]
  GI50: > 100 µM (inactive)
[39]
  GI50: > 100 µM (inactive)
[40]
  GI50: > 100 µM (inactive)
[41]
  GI50: > 100 µM (inactive)
[42]
  GI50: > 100 µM (inactive)
[43]
  GI50: > 100 µM (inactive)
[44]
  GI50: > 100 µM (inactive)
[45]
  GI50: > 100 µM (inactive)
[46]
  GI50: > 100 µM (inactive)
[47]
  GI50: > 100 µM (inactive)
[48]
  GI50: > 100 µM (inactive)
[49]
  GI50: > 100 µM (inactive)
[50]
  GI50: > 100 µM (inactive)
[51]
  GI50: > 100 µM (inactive)
[52]
  GI50: > 100 µM (inactive)

## Cc1cccc(C)c1NC(=O)CCC(=O)NNC(=O)c1cc(O)c2ccccc2c1
[1]
  GI50: 42.3 µM (inactive)
[2]
  GI50: 25.3 µM
[3]
  GI50: 44.5 µM (inactive)
[53]
  GI50: 27.8 µM (inactive)
[4]
  GI50: 37.2 µM (inactive)
[5]
  GI50: > 100 µM (inactive)
[6]
  GI50: 51.9 µM (inactive)
[7]
  GI50: 44.8 µM (inactive)
[54]
  GI50: 29.6 µM (inactive)
[9]
  GI50: 37.9 µM (inactive)
[10]
  GI50: 20.7 µM (inactive)
[11]
  GI50: 30.4 µM (inactive)
[12]
  GI50: 24 µM (inactive)
[13]
  GI50: 78.7 µM (inactive)
[14]
  GI50: 23 µM (inactive)
[15]
  GI50: 99.1 µM (inactive)
[16]
  GI50: > 100 µM (inactive)
[55]
  GI50: 26.3 µM (inactive)
[17]
  GI50: 48.8 µM (inactive)
[18]
  GI50: 70.1 µM (inactive)
[19]
  GI50: 35.2 µM (inactive)
[20]
  GI50: 27.6 µM (inactive)
[21]
  GI50: 58.3 µM (inactive)
[22]
  GI50: 25.6 µM (inactive)
[23]
  GI50: 40 µM (inactive)
[24]
  GI50: 32.1 µM (inactive)
[25]
  GI50: 38 µM (inactive)
[26]
  GI50: 25.1 µM (inactive)
[27]
  GI50: 34.9 µM (inactive)
[56]
  GI50: 28.2 µM (inactive)
[28]
  GI50: 27.6 µM (inactive)
[29]
  GI50: 23.9 µM (inactive)
[30]
  GI50: 0.344 µM (active)
[31]
  GI50: 24.8 µM (inactive)
[32]
  GI50: 31.4 µM (inactive)
[33]
  GI50: 31.8 µM (inactive)
[34]
  GI50: 27.9 µM (inactive)
[35]
  GI50: 34.4 µM (inactive)
[36]
  GI50: 97.9 µM (inactive)
[38]
  GI50: > 100 µM (inactive)
[39]
  GI50: 11.6 µM (inactive)
[40]
  GI50: 64.7 µM (inactive)
[41]
  GI50: 21.8 µM (inactive)
[42]
  GI50: 32.3 µM (inactive)
[43]
  GI50: 32.7 µM (inactive)
[44]
  GI50: 31.9 µM (inactive)
[45]
  GI50: 26.3 µM (inactive)
[46]
  GI50: 56.8 µM (inactive)
[49]
  GI50: 50.6 µM (inactive)
[57]
  GI50: 5.35 µM (inactive)
[58]
  GI50: 19.5 µM (inactive)
[50]
  GI50: 72.1 µM (inactive)
[51]
  GI50: 18.7 µM (inactive)
[52]
  GI50: 12.2 µM (inactive)

## CC1CCC2(OCCO2)[C@]2(C)CC(O)C(=O)C=C12 (some centres undefined)
[1]
  GI50: > 100 µM (inactive)
[2]
  GI50: > 100 µM
[3]
  GI50: > 100 µM (inactive)
[53]
  GI50: > 100 µM (inactive)
[4]
  GI50: > 100 µM (inactive)
[5]
  GI50: > 100 µM (inactive)
[6]
  GI50: > 100 µM (inactive)
[7]
  GI50: > 100 µM (inactive)
[54]
  GI50: > 100 µM (inactive)
[10]
  GI50: > 100 µM (inactive)
[11]
  GI50: > 100 µM (inactive)
[12]
  GI50: > 100 µM (inactive)
[13]
  GI50: > 100 µM (inactive)
[14]
  GI50: > 100 µM (inactive)
[15]
  GI50: > 100 µM (inactive)
[16]
  GI50: > 100 µM (inactive)
[55]
  GI50: > 100 µM (inactive)
[17]
  GI50: > 100 µM (inactive)
[18]
  GI50: > 100 µM (inactive)
[19]
  GI50: > 100 µM (inactive)
[20]
  GI50: > 100 µM (inactive)
[21]
  GI50: > 100 µM (inactive)
[23]
  GI50: > 100 µM (inactive)
[24]
  GI50: > 100 µM (inactive)
[25]
  GI50: > 100 µM (inactive)
[27]
  GI50: > 100 µM (inactive)
[56]
  GI50: > 100 µM (inactive)
[28]
  GI50: > 100 µM (inactive)
[29]
  GI50: > 100 µM (inactive)
[31]
  GI50: > 100 µM (inactive)
[32]
  GI50: > 100 µM (inactive)
[34]
  GI50: > 100 µM (inactive)
[36]
  GI50: > 100 µM (inactive)
[37]
  GI50: > 100 µM (inactive)
[39]
  GI50: > 100 µM (inactive)
[40]
  GI50: > 100 µM (inactive)
[41]
  GI50: > 100 µM (inactive)
[42]
  GI50: > 100 µM (inactive)
[43]
  GI50: > 100 µM (inactive)
[45]
  GI50: > 100 µM (inactive)
[46]
  GI50: > 100 µM (inactive)
[48]
  GI50: > 100 µM (inactive)
[49]
  GI50: > 100 µM (inactive)
[57]
  GI50: > 100 µM (inactive)
[58]
  GI50: > 100 µM (inactive)
[50]
  GI50: > 100 µM (inactive)
[51]
  GI50: > 100 µM (inactive)
[52]
  GI50: > 100 µM (inactive)
